According to patent US8101740B2, “Positron emission tomography probes for imaging immune activation and selected cancers” (The Regents of the University of California, priority 2007, dated 2012):

What was measured:
[1] = tested on: Bcr-Abl-expressing Ba/F3 cells and Bcr-Abl transformed bone marrow; test: microPET/CT of Bcr-Abl oncogene-induced leukemia models; assay type: in vivo, mouse; conditions: 1 hr after probe injection
Method: In addition to immune diseases, [^18F]D-FAC may also be used to measure dysregulated nucleoside metabolism in cancer. To this end, we examined the utility of [^18F]D-FAC microPET in animal models representative of leukemia or lymphoma, melanoma, and glioma tumors (FIG. 12, where the images are 1 mm coronal sections from [^18F]D-FAC microPET/CT scans 1 hr after probe injection). In FIG. 12A, SCID mice were injected intravenously with Ba/F3 cells expressing p210 BCR-ABL and go on to develop aggressive disease with massive splenic infiltration that typically results in death within ˜15 days (mice shown were imaged on day 12). In FIG. 12B, the NOD SCID mice were transplanted with wild type total bone marrow cells infected with MSCV-GFP-IRES-P185 BCR-ABL retroviral stocks and the leukemic mice were imaged 28 days following transplantation. In FIG. 12C, C57BL/6 was injected subcutaneously with 1×10^5 B16 melanoma cells and imaged 7 days later. […] [^18F]D-FAC PET also detected implanted murine B16 cells (representative of malignant melanoma) and human U87 cells (representative of glioma tumors). […]
Six to 8 week old mice with severe combined immunodeficiency (NOD SCID) were sublethally irradiated (275 rads) one day prior to reconstitution. […] Animals were monitored daily for signs of illness during a period of two months as previously described^10. […]

[2] = probe accumulation in necropsy tissue of mouse strains incl. BDC-2.5 (type 1 diabetes model); assay type: in vivo, BDC-2.5 mice; conditions: necropsy tissue samples
Text: Elevated retention of the [^18F]D-FAC probe in joints and the intestine over physiologic uptake values may reflect the presence of an active inflammatory processes that is characteristic of rheumatoid arthritis and inflammatory bowel disease, respectively. [^18F]D-FAC microPET can also be used to detect overt autoreactive immune activation in a BDC-2.5 mouse model that is prone to type 1 diabetes (FIG. 8). In FIG. 8A, the 1 mm coronal sections illustrate the pattern of [^18F]D-FAC probe accumulation in BDC-2.5 mice. (Abbreviations: CV, cervical LNs; AX, axillary LNs; BR, brachial LNs; IN, inguinal LNs; THY, Thymus; GI, Gastrointestinal tract; H, heart.) In FIG. 8B, [^18F]D-FAC accumulation is measured in necropsy tissue samples from BL/6, BALB/c, NOD LTJ, and BDC-2.5 mice.
FIG. 8 presents the results of microPET/CT imaging performed on BDC-2.5 T cell receptor transgenic mice injected with the [^18F]D-FAC probe. The BDC-2.5 strain is a well-established animal model for type I (autoimmunity-based) diabetes. In FIG. 8A, the 1 mm coronal sections illustrate the pattern of the [^18F]D-FAC probe accumulation in BDC-2.5 mice. (Abbreviations: CV, cervical LNs; AX, axillary LNs; BR, brachial LNs; IN, inguinal LNs; THY, Thymus; GI, Gastrointestinal tract; H, heart.) In FIG. 8B, [^18F]D-FAC accumulation is measured in necropsy tissue samples from BL/6, BALB/c, NOD Ltj and BDC-2.5 mice. […]

Nc1ccn([C@@H]2O[C@H](CO)[C@@H](O)[C@@H]2[18F])c(=O)n1 [[^18F]D-FAC, 1-(2′-deoxy-2′-[^18F]fluoro-β-D-arabinofuranosyl)cytosine]
retention in the spleen [1]: increased | route of clearance (dynamic microPET/CT time-activity curves): predominantly cleared through the kidney | retention in the brain and the myocardium (mouse, in vivo): low retention | organs with accumulated radioactivity (one hour after intravenous injection): thymus, spleen, intestine, bone/bone marrow and, to a lesser extent, in the liver | Spleen, % ID/g per organ normalized to % ID/g muscle (spleen, 60 min after intravenous injection, 3 mice): 2.16 +/− 0.48 % ID/g per organ normalized to % ID/g muscle | Thymus, % ID/g per organ normalized to % ID/g muscle (thymus, 60 min after intravenous injection, 3 mice): 3.29 +/− 0.48 % ID/g per organ normalized to % ID/g muscle | accumulation in spleen and lymph nodes among BL/6, BALB/c, NOD Ltj and BDC-2.5 mice [2]: highest levels
